This assay relates to UWB1 cells. The assay can be described thus: cells.
Where [1] appears, read: read-out: IC50 (μM) UWB1 cells, UWB1 cell viability.

Like-named read-outs stand apart in the source and are kept apart here. Bounds are passed on as bounds.

As for `C=C1[C@H](O[Si](C)(C)C)[C@H](O[Si](C)(C)C)[C@@H]2[C@](C)(C(=O)C=C[C@@]2(C)C(=O)OC)[C@H]1CC(=O)OC` [S-16-a], the IC50 (read-out: IC50 (μM) UWB1 cells) is greater than 10 µM.
In the case of `CC1=C2[C@@H](C[C@H]1c1ccoc1)O[C@@H]1[C@@H]3OC(=O)[C@]4(C)C=CC(=O)[C@](C)([C@@H](CC(=O)OC(C)(C)C)[C@]21C)[C@@H]34` [S-154], under setting [1], the IC50 is 0.453 µM.
On to `COC(=O)C[C@H]1[C@@H]2CC3=C(C)[C@@H](c4cccc(O[Si](C)(C)C(C)(C)C)c4)C[C@H]3O[C@@H]2[C@@H]2OC(=O)[C@]3(C)C=CC(=O)[C@@]1(C)[C@@H]23` [S-115], for which the IC50 (read-out: IC50 (μM) UWB1 cells) amounted to 0.196 µM.
The same measure, in the same setting: the figure for `COC(=O)C[C@H]1[C@@H]2CC3=C(C)[C@H](c4ccc(CO[Si](C)(C)C(C)(C)C)cc4)C[C@@H]3O[C@@H]2[C@@H]2OC(=O)[C@]3(C)C=CC(=O)[C@@]1(C)[C@@H]23` [S-147] is 0.192 µM.
`COC(=O)C[C@H]1[C@]2(C)C3=C(C)[C@H](c4ccoc4)C[C@H]3O[C@@H]2[C@@H]2OC(=O)[C@]3(C)CCC(=O)[C@@]1(C)[C@@H]23` [S-60, 2,3-dihydronimbolide]: the IC50 under setting [1] was greater than 10 µM.
For the compound `COC(=O)C[C@H]1[C@]2(C)C3=C(C)[C@H](c4ccoc4-c4ccc(C=O)cc4)C[C@H]3O[C@@H]2[C@@H]2OC(=O)[C@]3(C)C=CC(=O)[C@@]1(C)[C@@H]23` [S-45], the IC50 under setting [1] worked out at 0.251 µM.
As for `COC(=O)C[C@H]1[C@@H]2CC3=C(C)[C@H](c4ccc(C(C)(C)C)cc4)C[C@@H]3O[C@@H]2[C@@H]2OC(=O)[C@]3(C)C=CC(=O)[C@@]1(C)[C@@H]23` [S-142], the IC50 under setting [1] turned out to be 0.145 µM.
Consider `CC[Si](CC)(CC)O[C@H]1C(=O)[C@H](CC(=O)OC)[C@@]2(C)C=CC(=O)[C@@]3(C)C(=O)O[C@@H]1[C@@H]32` [S-38], for which the IC50 (read-out: IC50 (μM) UWB1 cells) is greater than 10 µM.
Take `COC(=O)C[C@H]1[C@]2(C)C3=C(C)[C@H](c4ccc(C(C)(C)C)cc4)C[C@H]3O[C@@H]2[C@@H]2OC(=O)[C@]3(C)C=CC(=O)[C@@]1(C)[C@@H]23` [S-141]: the IC50 under setting [1] is 0.248 µM.
For `COC(=O)C[C@H]1[C@]2(C)C3=C(C)[C@H](c4ccoc4-c4ccc(OC)nc4)C[C@H]3O[C@@H]2[C@@H]2OC(=O)[C@]3(C)C=CC(=O)[C@@]1(C)[C@@H]23` [S-43], the IC50 under setting [1] came to 0.208 µM.
On to `COC(=O)C[C@H]1[C@]2(C)C3=C(C)[C@H](c4ccoc4)C[C@H]3O[C@@H]2[C@H](O)[C@H]2C(C)=CCC(=O)[C@]12C` [S-61, 6-deacetylnimbinene], for which the IC50 under setting [1] is greater than 10 µM.
As to `COC(=O)C[C@H]1[C@]2(C)C3=C(C)[C@H](c4ccoc4-c4ccc([N+](=O)[O-])cc4)C[C@H]3O[C@@H]2[C@@H]2OC(=O)[C@]3(C)C=CC(=O)[C@@]1(C)[C@@H]23` [S-49], the IC50 under setting [1] came to 0.194 µM.
`COC(=O)C[C@H]1[C@@H]2CC3=C(C)[C@@H](c4ccc(C=O)cc4)C[C@@H]3O[C@@H]2[C@@H]2OC(=O)[C@]3(C)C=CC(=O)[C@@]1(C)[C@@H]23` [S-151]: the IC50 under setting [1] was found to be 0.766 µM.
On to `COC(=O)C[C@H]1[C@]2(C)C3=C(C)[C@H](c4ccoc4-c4cccc5c4ccn5C)C[C@H]3O[C@@H]2[C@@H]2OC(=O)[C@]3(C)C=CC(=O)[C@@]1(C)[C@@H]23` [S-42], for which, under setting [1], the IC50 is 0.144 µM.
For `C=C1[C@H](O)[C@@H]2OC(=O)[C@]3(C)C=CC(=O)[C@@](C)([C@@H]23)[C@H]1CC(=O)OC` [S-16], the IC50 under setting [1] was greater than 10 µM.
The same measure, in the same setting: under `COC(=O)C[C@H]1[C@]2(C)C3=C(C)[C@H](C4CCCCC4)C[C@H]3O[C@@H]2[C@@H]2OC(=O)[C@]3(C)C=CC(=O)[C@@]1(C)[C@@H]23` [S-104] stands 0.21 µM; under `COC(=O)C[C@H]1[C@]2(C)C3=C(C)[C@H](c4ccoc4-c4ccc(C(=O)OC)cc4)C[C@H]3O[C@@H]2[C@@H]2OC(=O)[C@]3(C)C=CC(=O)[C@@]1(C)[C@@H]23` [S-59], 0.203 µM.
As for `COC(=O)C[C@H]1[C@@H]2CC3=C(C)[C@H](c4ccccc4O[Si](C)(C)C(C)(C)C)C[C@H]3O[C@@H]2[C@@H]2OC(=O)[C@]3(C)C=CC(=O)[C@@]1(C)[C@@H]23` [S-129], under “read-out: IC50 (μM) UWB1 cells”, the IC50 came out at 0.163 µM.
